Measured values as given in ChEMBL document CHEMBL1201862, “PubChem BioAssay data set” (2004).
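Cells were grown in 96-well plates and exposed to each compound for 48 hours at five concentrations; endpoints were interpolated linearly between bracketing concentrations, or set to the highest concentration if not reached. Here, GI50 denotes the concentration required for 50% inhibition of growth.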 Calls of active or inactive are those of the source. Rule as the data show it: active = GI50 up to about 1.1 µM and inactive = higher.

Columns and labels:
Test in all cases: growth of human tumour cells (NCI), 48 h
UO-31 = system: UO-31
NCI-H460 = system: NCI-H460
MDA-MB-231 = system: MDA-MB-231
U-251 = system: U-251
HCT-116 = system: HCT-116
SF-295 = system: SF-295
SK-MEL-28 = system: SK-MEL-28
Hs-578T = system: Hs-578T
PC-3 = system: PC-3
OVCAR-8 = system: OVCAR-8
T47D = system: T47D
MCF7 = system: MCF7
ACHN = system: ACHN
SR = system: SR
UACC-257 = system: UACC-257
Malme-3M = system: Malme-3M
MDA-N = system: MDA-N
SK-MEL-5 = system: SK-MEL-5
NCI-H23 = system: NCI-H23
KM-20L2 = system: KM-20L2

SMILES	GI50 (UO-31)	GI50 (NCI-H460)	GI50 (MDA-MB-231)	GI50 (U-251)	GI50 (HCT-116)	GI50 (SF-295)	GI50 (SK-MEL-28)	GI50 (Hs-578T)	GI50 (PC-3)	GI50 (OVCAR-8)	GI50 (T47D)	GI50 (MCF7)	GI50 (ACHN)	GI50 (SR)	GI50 (UACC-257)	GI50 (Malme-3M)	GI50 (MDA-N)	GI50 (SK-MEL-5)	GI50 (NCI-H23)	GI50 (KM-20L2)
CCOC(=S)SC/C(=N\OC(C)(C)OC)c1ccccc1	31.2 µM (inactive)	35 µM (inactive)	> 100 µM (inactive)	41.9 µM (inactive)	24.9 µM (inactive)	32.3 µM (inactive)	47.3 µM (inactive)	46.5 µM (inactive)	59.4 µM (inactive)	88.7 µM (inactive)	20.7 µM (inactive)	29.2 µM (inactive)	71.3 µM (inactive)	14.5 µM (inactive)	35.3 µM (inactive)	45 µM (inactive)	36.1 µM (inactive)	41 µM (inactive)	31.7 µM (inactive)	
O=c1c2cc([N+](=O)[O-])ccc2n(Cc2ccccc2)n1Cc1ccccc1	12.4 µM (inactive)	11.8 µM (inactive)	12.6 µM (inactive)	15.1 µM (inactive)	16.9 µM (inactive)	15.1 µM (inactive)	18.5 µM (inactive)	16.3 µM (inactive)	12 µM (inactive)	11.9 µM (inactive)	10.9 µM (inactive)	14 µM (inactive)	16.2 µM (inactive)	14 µM (inactive)	10.8 µM (inactive)	> 17.8 µM (inactive)	12.2 µM (inactive)	4.75 µM (inactive)	13.1 µM (inactive)	
COc1cc(Br)c(C2OCCCO2)cc1OCc1ccccc1	28.2 µM (inactive)	55.7 µM (inactive)		> 100 µM (inactive)	39.7 µM (inactive)	> 100 µM (inactive)	60.3 µM (inactive)			> 100 µM (inactive)			37.9 µM (inactive)					46.3 µM (inactive)	85.5 µM (inactive)	> 100 µM (inactive)
CCOP(=O)(OCC)C(C)(C)OC(=O)NC#N	> 100 µM (inactive)	> 100 µM (inactive)	> 100 µM (inactive)	> 100 µM (inactive)	> 100 µM (inactive)	> 100 µM (inactive)	> 100 µM (inactive)	> 100 µM (inactive)	> 100 µM (inactive)	> 100 µM (inactive)	> 100 µM (inactive)	> 100 µM (inactive)	> 100 µM (inactive)	> 100 µM (inactive)	> 100 µM (inactive)	> 100 µM (inactive)	> 100 µM (inactive)	> 100 µM (inactive)	> 100 µM (inactive)	
C=C(C)[C@H]1C2=CC(C)=C(O2)[C@@H](O[C@@H]2c3oc(cc3C)[C@H](C(=C)C)[C@H]3C=C(CC[C@H]2C(=C)C)C(=O)O3)[C@H](C(=C)C)CCC2=C[C@H]1OC2=O	> 100 µM (inactive)	> 100 µM (inactive)	> 100 µM (inactive)	> 100 µM (inactive)	> 100 µM (inactive)	> 100 µM (inactive)	> 100 µM (inactive)	> 100 µM (inactive)	> 100 µM (inactive)	> 100 µM (inactive)	> 100 µM (inactive)	> 100 µM (inactive)	> 100 µM (inactive)	> 100 µM (inactive)	> 100 µM (inactive)	> 100 µM (inactive)	> 100 µM (inactive)	> 100 µM (inactive)	> 100 µM (inactive)	
CCOC(=O)CC[C@H](N)C(=O)N[C@@H](Cc1ccc(N(CCCl)CCCl)cc1)C(=O)OCC	0.807 µM (active)	0.0364 µM (active)	1.94 µM (inactive)	1.94 µM (inactive)	0.851 µM (active)	3.6 µM (inactive)	0.869 µM (active)	2.16 µM (inactive)	1.29 µM (inactive)	0.891 µM (active)	0.718 µM (active)	0.483 µM (active)	< 0.0348 µM (active)	< 0.0201 µM (active)	1.5 µM (inactive)	0.291 µM (active)	0.944 µM (active)	1.5 µM (inactive)	0.278 µM (active)	
O=c1c2c3c(sc2nc2n1N=CN(c1ccc(F)cc1)C2)CCCC3	> 100 µM (inactive)	> 100 µM (inactive)	> 100 µM (inactive)	> 100 µM (inactive)	> 100 µM (inactive)	> 100 µM (inactive)	> 100 µM (inactive)	> 100 µM (inactive)	> 100 µM (inactive)	> 100 µM (inactive)	> 100 µM (inactive)	> 100 µM (inactive)	> 100 µM (inactive)	> 100 µM (inactive)	> 100 µM (inactive)	> 100 µM (inactive)	> 100 µM (inactive)	> 100 µM (inactive)	> 100 µM (inactive)	
COc1ccc(-n2c3c(c4c(CN(C)C)c(O)ccc42)C(=O)c2ccccc2C3=O)cc1	1.96 µM (inactive)	4.24 µM (inactive)	3.08 µM (inactive)	2.94 µM (inactive)	1.68 µM (inactive)	14.7 µM (inactive)	3.38 µM (inactive)	30.5 µM (inactive)	13 µM (inactive)	3.26 µM (inactive)	2.67 µM (inactive)	7.18 µM (inactive)	2.17 µM (inactive)	2.45 µM (inactive)	18.8 µM (inactive)	11.4 µM (inactive)	4.62 µM (inactive)	1.69 µM (inactive)	12.7 µM (inactive)	
c1ccc2c(c1)Nc1ccccc1[P+]21c2ccccc2Nc2ccccc21	5.46 µM (inactive)	0.146 µM (active)	0.212 µM (active)	0.23 µM (active)	0.151 µM (active)	1.3 µM (inactive)	0.244 µM (active)	0.0723 µM (active)	0.169 µM (active)	0.368 µM (active)	0.11 µM (active)	0.489 µM (active)	1.86 µM (inactive)	0.238 µM (active)	0.214 µM (active)	0.207 µM (active)	0.27 µM (active)	0.165 µM (active)	0.175 µM (active)	
CC(=O)c1c2n(n(-c3ccccc3)c1=O)C(=O)c1nccnc1-2	> 100 µM (inactive)	> 100 µM (inactive)	> 100 µM (inactive)	> 100 µM (inactive)	> 100 µM (inactive)	> 100 µM (inactive)	> 100 µM (inactive)	> 100 µM (inactive)	> 100 µM (inactive)	> 100 µM (inactive)	> 100 µM (inactive)	> 100 µM (inactive)	> 100 µM (inactive)	> 100 µM (inactive)	> 100 µM (inactive)	> 100 µM (inactive)	> 100 µM (inactive)	> 100 µM (inactive)	> 100 µM (inactive)	
COC(=O)C(=O)C(C(=O)OC)C(=O)C(=O)Nc1ccccc1C(N)=O (stereo not given)	> 100 µM (inactive)	> 10 µM (inactive)	> 100 µM (inactive)	> 100 µM (inactive)	> 100 µM (inactive)	> 100 µM (inactive)	> 100 µM (inactive)	> 100 µM (inactive)	> 100 µM (inactive)	> 100 µM (inactive)	> 100 µM (inactive)	> 100 µM (inactive)	> 100 µM (inactive)	> 100 µM (inactive)	> 100 µM (inactive)	> 100 µM (inactive)	> 100 µM (inactive)	> 100 µM (inactive)	> 100 µM (inactive)	
Cc1nc2sc(C(=O)c3ccc(Cl)cc3)c(N)c2c(-c2ccccc2Cl)c1C(=O)Nc1ccccc1	17.3 µM (inactive)	9.02 µM (inactive)	14.2 µM (inactive)	7.08 µM (inactive)	6.44 µM (inactive)	20.7 µM (inactive)	13.1 µM (inactive)	20.1 µM (inactive)	19 µM (inactive)	13.4 µM (inactive)	2.93 µM (inactive)	15.2 µM (inactive)	21.2 µM (inactive)	18.1 µM (inactive)	18.6 µM (inactive)	13 µM (inactive)	10.8 µM (inactive)	17.4 µM (inactive)	16.6 µM (inactive)	
Cc1ccc(-c2n[nH]c(=O)n2N)cc1	> 100 µM (inactive)	> 100 µM (inactive)	> 100 µM (inactive)	> 100 µM (inactive)	> 100 µM (inactive)	> 100 µM (inactive)	> 100 µM (inactive)	> 100 µM (inactive)	> 100 µM (inactive)	> 100 µM (inactive)	> 100 µM (inactive)	> 100 µM (inactive)	> 100 µM (inactive)	> 100 µM (inactive)	> 100 µM (inactive)	> 100 µM (inactive)	> 100 µM (inactive)	> 100 µM (inactive)	> 100 µM (inactive)	
CC(=O)O[C@H]1CCC2[C@@H]3CCC4Nc5c(cnn5-c5ccccc5)C[C@]4(C)C3CC[C@@]21C (stereo not given in full)	11 µM (inactive)	15.8 µM (inactive)		17.9 µM (inactive)	14.3 µM (inactive)	2.97 µM (inactive)				18.2 µM (inactive)			14.6 µM (inactive)		11.5 µM (inactive)	11.8 µM (inactive)		7.94 µM (inactive)	4.83 µM (inactive)	8 µM (inactive)
c1ccc2c(c1)c1c(c3ccccc32)CN2CCCC2C1 (stereo not given)	2.77 µM (inactive)	3.03 µM (inactive)	3.2 µM (inactive)	3.4 µM (inactive)	3.17 µM (inactive)	3.09 µM (inactive)	2.62 µM (inactive)	2.38 µM (inactive)	3 µM (inactive)	3.17 µM (inactive)	1.5 µM (inactive)	2.44 µM (inactive)	3.01 µM (inactive)	4.89 µM (inactive)	4.05 µM (inactive)	2.45 µM (inactive)	2.82 µM (inactive)	3.51 µM (inactive)	2.94 µM (inactive)	
